Experimental data: patent publication US6531459B1, “Vitamin D derivatives with phosphorus atoms in the side chains” (Schering Aktiengesellschaft, priority 1997, dated 2003)

Target: T1, vitamin D receptor (Sus scrofa, UniProt A3RGC1)
T1 construct: Receptor-containing protein extract is incubated in a test tube with ^3H-calcitriol; from tissue; host or cells: intestines of juvenile pigs (protein extract)
T1 sequence (A3RGC1 1-427): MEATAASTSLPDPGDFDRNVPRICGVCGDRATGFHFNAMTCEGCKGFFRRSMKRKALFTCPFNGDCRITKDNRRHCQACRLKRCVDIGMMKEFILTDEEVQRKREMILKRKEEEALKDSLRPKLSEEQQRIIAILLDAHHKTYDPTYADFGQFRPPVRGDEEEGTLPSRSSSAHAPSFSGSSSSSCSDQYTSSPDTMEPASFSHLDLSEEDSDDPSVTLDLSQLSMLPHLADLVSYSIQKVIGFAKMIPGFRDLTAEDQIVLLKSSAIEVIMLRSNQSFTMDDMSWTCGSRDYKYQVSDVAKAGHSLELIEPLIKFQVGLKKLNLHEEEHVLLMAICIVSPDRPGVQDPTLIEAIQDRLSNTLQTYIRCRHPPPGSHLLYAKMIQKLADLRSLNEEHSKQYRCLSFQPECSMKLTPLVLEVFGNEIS
Test: calcitriol-receptor test (competition with 3H-calcitriol)
Assay type: binding
Conditions: concentration of test substance / concentration of calcitriol at 50% competition; pig intestine protein extract, 3H-calcitriol 5×10^−10 mol/l
Method: It is carried out using a protein extract from the intestines of juvenile pigs. […] Then, the samples are centrifuged at 10,000 g for 5 minutes at 4° C. The supernatant is decanted and measured in a β-counter after 1 hour of equilibration in Picofluor 15™.
It is defined as a quotient of the concentrations of the respective test substance and the reference substance, which are necessary for 50% competition:
KF=Concentration of test substance at 50% competition/Concentration of reference substance at 50% competition

Compound | KF (competition factor)
C=C1/C(=C\C=C2/CCC[C@]3(C)[C@@H]([C@H](C)/C=C/C(=O)CP(=O)(OC)OC)CC[C@@H]23)C[C@@H](O)C[C@@H]1O [Compound 5, (5Z,7E,22E)-(1S,3R)-(1,3-Dihydroxy-24-oxo-24a-homo-9,10-secochola-5,7,10(19),22-tetraen-24a-yl)phosphonic acid dimethyl ester] | 10
C=C1/C(=C\C=C2/CCC[C@]3(C)[C@@H]([C@H](C)/C=C/C(=O)CP(=O)(OCC)OCC)CC[C@@H]23)C[C@@H](O)C[C@@H]1O [Compound 9, (5Z,7E,22E)-(1S,3R)-(1,3-Dihydroxy-24-oxo-24a-homo-9,10-secochola-5,7,10(19),22-tetraen-24a-yl)phosphonic acid diethyl ester] | 10
C=C1/C(=C\C=C2/CCC[C@]3(C)[C@@H]([C@H](C)/C=C/C(=O)CP(=O)(OC(C)C)OC(C)C)CC[C@@H]23)C[C@@H](O)C[C@@H]1O [Compound 13, (5Z,7E,22E)-(1S,3R)-(1,3-Dihydroxy-24-oxo-24a-homo-9,10-secochola-5,7,10(19),22-tetraen-24a-yl)phosphonic acid bis(1-methylethyl)ester] | 6
C=C1/C(=C\C=C2/CCC[C@]3(C)[C@@H]([C@H](C)/C=C/C(CP(=O)(OCC)OCC)P(=O)(OCC)OCC)CC[C@@H]23)C[C@@H](O)C[C@@H]1O (stereo partly drawn) [Compound 29, (5Z,7E,22E)-(1S,3R,24ξ)-(1,3-Dihydroxy-24a-homo-9,10-secochola-5,7,10(19),22-tetraene-24,24a-diyl)bis[phosphonic acid diethyl ester]] | 10
C=C1C(=CC=C2CCCC3(C)C2CCC3C(C)C=CC(=O)C(C)(C)P(=O)(OCC)OCC)CC(O)CC1O [Compound 53, (5Z,7E,22E)-(1S,3R)-(1,3-Dihydroxy-24-oxo-9,10-secocholesta-5,7,10(19),22-tetraen-25-yl)phosphonic acid diethyl ester] | 12
C=C1/C(=C\C=C2/CCC[C@]3(C)[C@@H]([C@H](C)/C=C/C(=O)C(CC)(CC)P(=O)(OCC)OCC)CC[C@@H]23)C[C@@H](O)C[C@@H]1O [Compound 57, (5Z,7E,22E)-(1S,3R)-(1,3-Dihydroxy-26,27-dimethyl-24-oxo-9,10-secocholesta-5,7,10(19),22-tetraen-25-yl)phosphonic acid diethyl ester] | 16
C=C1C(=CC=C2CCCC3(C)C2CCC3C(C)C=CC(O)P(=O)(OC(C)C)OC(C)C)CC(O)CC1O [Compound 65b, (5Z,7E,22E)-(1S,3R,24R)-(1,3,24-trihydroxy-9,10-secochola-5,7,10(19),22-tetraen-24-yl)phosphonic acid-bis(1-methylethyl)ester] | 10
